Laboratory results as given in US9717748B2, “Compositions and methods for treating an infection” (CMPD LICENSING, LLC, priority 2015, dated 2017).
Read-outs that look alike come from different tables or passages of the source.

Legend:
[1] = test system: Acinetobacter calcoaceticus; experiment: Expected efficacy of antibiotic agents; conditions: Gram: neg
Acinetobacter lwoffii = experiment: Expected efficacy of antibiotic agents; conditions: Gram: neg
[2] = test system: Staphylococcus epidermidis; experiment: Expected efficacy of antibiotic agents; conditions: Gram: pos
Bordetella pertussis = experiment: Expected efficacy of antibiotic agents; conditions: Gram: neg
Clostridium difficile = experiment: Expected efficacy of antibiotic agents; conditions: Gram: anaer
Streptococcus pyogenes = experiment: Expected efficacy of antibiotic agents; conditions: Gram: pos
Enterobacter cloacae = experiment: Expected efficacy of antibiotic agents; conditions: Gram: neg
Morganella morganii = experiment: Expected efficacy of antibiotic agents; conditions: Gram: neg
Shigella flexneri = experiment: Expected efficacy of antibiotic agents; conditions: Gram: neg
Shigella dysenteriae = experiment: Expected efficacy of antibiotic agents; conditions: Gram: neg
Pseudomonas aeruginosa = experiment: Expected efficacy of antibiotic agents; conditions: Gram: neg
Escherichia coli = experiment: Expected efficacy of antibiotic agents; conditions: Gram: neg
Citrobacter diversus = experiment: Expected efficacy of antibiotic agents; conditions: Gram: neg
Streptococcus agalactiae = experiment: Expected efficacy of antibiotic agents; conditions: Gram: pos
Providencia stuartii = experiment: Expected efficacy of antibiotic agents; conditions: Gram: neg
Salmonella typhi = experiment: Expected efficacy of antibiotic agents; conditions: Gram: neg
Mycoplasma pneumoniae = experiment: Expected efficacy of antibiotic agents; conditions: Gram: n/a
Neisseria gonorrhoeae = experiment: Expected efficacy of antibiotic agents; conditions: Gram: neg
Proteus vulgaris = experiment: Expected efficacy of antibiotic agents; conditions: Gram: neg
Neisseria meningitidis = experiment: Expected efficacy of antibiotic agents; conditions: Gram: neg
Moraxella catarrhalis = experiment: Expected efficacy of antibiotic agents; conditions: Gram: neg
[3] = test system: Staphylococcus aureus (MSSA); experiment: Expected efficacy of antibiotic agents; conditions: Gram: pos
Shigella boydii = experiment: Expected efficacy of antibiotic agents; conditions: Gram: neg
Campylobacter jejuni = experiment: Expected efficacy of antibiotic agents; conditions: Gram: neg
[4] = test system: Corynebacterium urealyticum; experiment: Expected efficacy of antibiotic agents; conditions: Gram: pos
[5] = test system: Haemophilus parainfluenzae; experiment: Expected efficacy of antibiotic agents; conditions: Gram: neg
Citrobacter freundii = experiment: Expected efficacy of antibiotic agents; conditions: Gram: neg
Bartonella bacilliformis = experiment: Expected efficacy of antibiotic agents; conditions: Gram: neg
Vibrio cholerae = experiment: Expected efficacy of antibiotic agents; conditions: Gram: neg
Serratia marcescens = experiment: Expected efficacy of antibiotic agents; conditions: Gram: neg
Acinetobacter baumannii = experiment: Expected efficacy of antibiotic agents; conditions: Gram: neg
Enterococcus faecium = experiment: Expected efficacy of antibiotic agents; conditions: Gram: pos
Corynebacterium jeikeium = experiment: Expected efficacy of antibiotic agents; conditions: Gram: pos
Chlamydia trachomatis = experiment: Expected efficacy of antibiotic agents; conditions: Gram: n/a
Haemophilus ducreyi = experiment: Expected efficacy of antibiotic agents; conditions: Gram: neg
Chlamydia pneumoniae = experiment: Expected efficacy of antibiotic agents; conditions: Gram: n/a
Pseudomonas fluorescens = experiment: Expected efficacy of antibiotic agents; conditions: Gram: neg
Klebsiella pneumoniae = experiment: Expected efficacy of antibiotic agents; conditions: Gram: neg
Bacteroides fragilis = experiment: Expected efficacy of antibiotic agents; conditions: Gram: anaer
Diphtheroids = experiment: Expected efficacy of antibiotic agents; conditions: Gram: pos
[6] = test system: Viridans group streptococci; experiment: Expected efficacy of antibiotic agents; conditions: Gram: pos
Shigella sonnei = experiment: Expected efficacy of antibiotic agents; conditions: Gram: neg
Peptostreptococcus = experiment: Expected efficacy of antibiotic agents; conditions: Gram: pos
Providencia rettgeri = experiment: Expected efficacy of antibiotic agents; conditions: Gram: neg
Enterobacter aerogenes = experiment: Expected efficacy of antibiotic agents; conditions: Gram: neg
Klebsiella oxytoca = experiment: Expected efficacy of antibiotic agents; conditions: Gram: neg
Proteus mirabilis = experiment: Expected efficacy of antibiotic agents; conditions: Gram: neg
Haemophilus influenzae = experiment: Expected efficacy of antibiotic agents; conditions: Gram: neg
[7] = test system: Klebsiella (Calymmato-bacterium) granulomatis; experiment: Expected efficacy of antibiotic agents; conditions: Gram: neg
Enterobacter sakazakii = experiment: Expected efficacy of antibiotic agents; conditions: Gram: neg
Streptococcus pneumoniae = experiment: Expected efficacy of antibiotic agents; conditions: Gram: pos
Enterococcus faecalis = experiment: Expected efficacy of antibiotic agents; conditions: Gram: pos
[8] = test system: Methicillin resistant staphaureus (MRSA); experiment: Expected efficacy of antibiotic agents; conditions: Gram: pos

With CN[C@H](CC(C)C)C(=O)N[C@H]1C(=O)N[C@@H](CC(N)=O)C(=O)N[C@H]2C(=O)N[C@H]3C(=O)N[C@H](C(=O)N[C@H](C(=O)O)c4cc(O)cc(O)c4-c4cc3ccc4O)[C@H](O)c3ccc(c(Cl)c3)Oc3cc2cc(c3O[C@@H]2O[C@H](CO)[C@@H](O)[C@H](O)[C@H]2O[C@H]2C[C@](C)(N)[C@H](O)[C@H](C)O2)Oc2ccc(cc2Cl)[C@H]1O [Vancomycin] the “Expected efficacy against Acinetobacter calcoaceticus” value [1] was “no”, the “Expected efficacy against Acinetobacter lwoffii” value (Acinetobacter lwoffii) was “no” and the “Expected efficacy against Staphylococcus epidermidis” value [2] was “yes”. The “Expected efficacy against Bordetella pertussis” value (Bordetella pertussis) was “no”, the “Expected efficacy against Clostridium difficile” value (Clostridium difficile) was “yes” and the “Expected efficacy against Streptococcus pyogenes” value (Streptococcus pyogenes) was “yes”. The “Expected efficacy against Rickettsiae” value (Rickettsiae) was “no”, the “Expected efficacy against Enterobacter cloacae” value (Enterobacter cloacae) was “no” and the “Expected efficacy against Morganella morganii” value (Morganella morganii) was “no”. The “Expected efficacy against Shigella flexneri” value (Shigella flexneri) was “no”, the “Expected efficacy against Shigella dysenteriae” value (Shigella dysenteriae) was “no” and the “Expected efficacy against Pseudomonas aeruginosa” value (Pseudomonas aeruginosa) was “no”. The “Expected efficacy against Escherichia coli” value (Escherichia coli) was “no”, the “Expected efficacy against Citrobacter diversus” value (Citrobacter diversus) was “no” and the “Expected efficacy against Streptococcus agalactiae” value (Streptococcus agalactiae) was “yes”. The “Expected efficacy against Providencia stuartii” value (Providencia stuartii) was “no”, the “Expected efficacy against Salmonella typhi” value (Salmonella typhi) was “no” and the “Expected efficacy against Mycoplasma pneumoniae” value (Mycoplasma pneumoniae) was “no”. For the same molecule, the “Expected efficacy against Neisseria gonorrhoeae” value (Neisseria gonorrhoeae) was “no”, the “Expected efficacy against Clostridium perfringens” value (Clostridium perfringens) was “no” and the “Expected efficacy against Proteus vulgaris” value (Proteus vulgaris) was “no”. The “Expected efficacy against Neisseria meningitidis” value (Neisseria meningitidis) was “no”, the “Expected efficacy against Moraxella catarrhalis” value (Moraxella catarrhalis) was “no” and the “Expected efficacy against Staphylococcus aureus (MSSA)” value [3] was “yes”. For the same molecule, the “Expected efficacy against Shigella boydii” value (Shigella boydii) was “no”, the “Expected efficacy against Campylobacter jejuni” value (Campylobacter jejuni) was “no” and the “Expected efficacy against Corynebacterium urealyticum” value [4] was “yes”. For the same molecule, the “Expected efficacy against Haemophilus parainfluenzae” value [5] was “no”, the “Expected efficacy against Citrobacter freundii” value (Citrobacter freundii) was “no” and the “Expected efficacy against Francisella tularensis” value (Francisella tularensis) was “no”. The “Expected efficacy against Bartonella bacilliformis” value (Bartonella bacilliformis) was “no”, the “Expected efficacy against Vibrio cholerae” value (Vibrio cholerae) was “no” and the “Expected efficacy against Serratia marcescens” value (Serratia marcescens) was “no”. For the same molecule, the “Expected efficacy against Acinetobacter baumannii” value (Acinetobacter baumannii) was “no”, the “Expected efficacy against Enterococcus faecium” value (Enterococcus faecium) was “yes, not VRE” and the “Expected efficacy against Corynebacterium jeikeium” value (Corynebacterium jeikeium) was “yes”. For the same molecule, the “Expected efficacy against Chlamydia trachomatis” value (Chlamydia trachomatis) was “no”, the “Expected efficacy against Haemophilus ducreyi” value (Haemophilus ducreyi) was “no” and the “Expected efficacy against Chlamydia pneumoniae” value (Chlamydia pneumoniae) was “no”. For the same molecule, the “Expected efficacy against Pseudomonas fluorescens” value (Pseudomonas fluorescens) was “no”, the “Expected efficacy against Klebsiella pneumoniae” value (Klebsiella pneumoniae) was “no” and the “Expected efficacy against Brucella species” value (Brucella species) was “no”. The “Expected efficacy against Bacteroides fragilis” value (Bacteroides fragilis) was “no”, the “Expected efficacy against Diphtheroids” value (Diphtheroids) was “yes” and the “Expected efficacy against Viridans group streptococci” value [6] was “yes”. The “Expected efficacy against Chlamydia psittaci” value (Chlamydia psittaci) was “no”, the “Expected efficacy against Legionella pneumophila” value (Legionella pneumophila) was “no” and the “Expected efficacy against Shigella sonnei” value (Shigella sonnei) was “no”. The “Expected efficacy against Peptostreptococcus” value (Peptostreptococcus) was “yes”, the “Expected efficacy against Yersinia pestis” value (Yersinia pestis) was “no” and the “Expected efficacy against Providencia rettgeri” value (Providencia rettgeri) was “no”. For the same molecule, the “Expected efficacy against Enterobacter aerogenes” value (Enterobacter aerogenes) was “no”, the “Expected efficacy against Klebsiella oxytoca” value (Klebsiella oxytoca) was “no” and the “Expected efficacy against Proteus mirabilis” value (Proteus mirabilis) was “no”. For the same molecule, the “Expected efficacy against Haemophilus influenzae” value (Haemophilus influenzae) was “no”, the “Expected efficacy against Klebsiella (Calymmato-bacterium) granulomatis” value [7] was “no” and the “Expected efficacy against Enterobacter sakazakii” value (Enterobacter sakazakii) was “no”.
For Colistimethate, the “Expected efficacy against Staphylococcus epidermidis” value [2] was “no”, the “Expected efficacy against Bordetella pertussis” value (Bordetella pertussis) was “no” and the “Expected efficacy against Clostridium difficile” value (Clostridium difficile) was “no”. For the same molecule, the “Expected efficacy against Streptococcus pyogenes” value (Streptococcus pyogenes) was “no”, the “Expected efficacy against Enterobacter cloacae” value (Enterobacter cloacae) was “yes” and the “Expected efficacy against Pseudomonas aeruginosa” value (Pseudomonas aeruginosa) was “yes”. The “Expected efficacy against Streptococcus pneumoniae” value (Streptococcus pneumoniae) was “no”, the “Expected efficacy against Streptococcus agalactiae” value (Streptococcus agalactiae) was “no” and the “Expected efficacy against Providencia stuartii” value (Providencia stuartii) was “no”. For the same molecule, the “Expected efficacy against Mycoplasma pneumoniae” value (Mycoplasma pneumoniae) was “no”, the “Expected efficacy against Neisseria gonorrhoeae” value (Neisseria gonorrhoeae) was “no” and the “Expected efficacy against Proteus vulgaris” value (Proteus vulgaris) was “no”. The “Expected efficacy against Neisseria meningitidis” value (Neisseria meningitidis) was “no”, the “Expected efficacy against Moraxella catarrhalis” value (Moraxella catarrhalis) was “no” and the “Expected efficacy against Staphylococcus aureus (MSSA)” value [3] was “yes”. For the same molecule, the “Expected efficacy against Corynebacterium urealyticum” value [4] was “no”, the “Expected efficacy against Enterococcus faecalis” value (Enterococcus faecalis) was “no” and the “Expected efficacy against Haemophilus parainfluenzae” value [5] was “no”. The “Expected efficacy against Vibrio cholerae” value (Vibrio cholerae) was “no”, the “Expected efficacy against Serratia marcescens” value (Serratia marcescens) was “no” and the “Expected efficacy against Enterococcus faecium” value (Enterococcus faecium) was “no”. For the same molecule, the “Expected efficacy against Corynebacterium jeikeium” value (Corynebacterium jeikeium) was “no”, the “Expected efficacy against Chlamydia trachomatis” value (Chlamydia trachomatis) was “no” and the “Expected efficacy against Chlamydia pneumoniae” value (Chlamydia pneumoniae) was “no”. The “Expected efficacy against Klebsiella pneumoniae” value (Klebsiella pneumoniae) was “yes”, the “Expected efficacy against Methicillin resistant staphaureus (MRSA)” value [8] was “no” and the “Expected efficacy against Brucella species” value (Brucella species; Gram: neg) was “no”. The “Expected efficacy against Bacteroides fragilis” value (Bacteroides fragilis) was “no”, the “Expected efficacy against Diphtheroids” value (Diphtheroids) was “no” and the “Expected efficacy against Viridans group streptococci” value [6] was “no”. For the same molecule, the “Expected efficacy against Chlamydia psittaci” value (Chlamydia psittaci; Gram: n/a) was “no”, the “Expected efficacy against Legionella pneumophila” value (Legionella pneumophila; Gram: neg) was “no” and the “Expected efficacy against Peptostreptococcus” value (Peptostreptococcus) was “no”. The “Expected efficacy against Providencia rettgeri” value (Providencia rettgeri) was “no”, the “Expected efficacy against Proteus mirabilis” value (Proteus mirabilis) was “no” and the “Expected efficacy against Klebsiella (Calymmato-bacterium) granulomatis” value [7] was “yes”. The “Expected efficacy against Enterobacter sakazakii” value (Enterobacter sakazakii) was “yes”.
